Experimental findings from patent publication US20080021056A1, “Fused, Tricyclic Sulfonamide Inhibitors of Gamma Secretase” (priority 2006, published 2008) are described below.

In this test the target is T1, gamma-secretase (Homo sapiens, UniProt P49768).
T1 construct: partially purified extract of IMR-32 cell membranes as the gamma-secretase enzyme preparation; endogenous in cells; host or cells: IMR-32 cell membranes (partially purified extract)
In words: Gamma-secretase APP enzyme assay. The following applies: cleavage of MBP-C125 Swe substrate at the Aβ40 site; partially purified extract of IMR-32 cell membranes; ELISA. The format is biochemical. An excerpt:
The gamma-secretase APP enzyme assay was designed to measure the specific proteolytic cleavage of an APP substrate (MBP-C125 Swe fusion protein) at the Aβ40 site. The assay used a partially purified extract of IMR-32 cell membranes as the gamma-secretase enzyme preparation and a recombinant fusion protein containing the C-terminal 125 amino acids of the Swedish variant of the APP (MBP-C125swe) as the substrate. This assay involved two steps beginning with the enzymatic reaction generating a cleavage product that was captured with an immobilized antibody specific for the neo-epitope Aβ40 site. The captured cleavage product was then detected in a sandwich ELISA assay with a biotinylated reporter antibody that is specific to Aβ (17-28). Streptavidin-linked alkaline phosphatase was then added that would generate a fluorescent signal proportional to the amount of cleavage product. This assay was used to discover small molecule inhibitors of gamma-secretase.
Briefly, a 149 mg/ml solution of BIGCHAP detergent was made with water at 42° C. and then rotated for 30 minutes at the same temperatures This warmed solution of BigCHAPS (N,N-Bis(3-D-gluconamidopropyl)cholamide) detergent was used to dissolve Brain Extract Type-V (lipid containing a minimum of 40% phosphatidylethanolamine) from Signa (St. Louis, Mo.) to a concentration of 8 mg/ml. This solution containing BigCHAPS and lipid at 8 mg/ml is then diluted to 0.53 mg/ml lipid with a pre-warmed solution of Hepes and sodium chloride. This final solution containing Hepes buffer, sodium chloride, BigCHAPS detergent and lipid is used to create working solutions of both gamma-secretase (25 Units) and the MBP-C125 substrate (0.05 mg/ml).
Gamma-secretase was then added to a 96-well micro-titre plate and then incubated with various concentrations of inhibitor for 30 minutes at 37° C. MBPC125 substrate was then added to initiate the reaction that would run for two hours at 37° C. The reaction was quenched with the addition of SDS to a final concentration of 0.1% and then 100 μl of the reaction mixture was transferred to a capture ELISA plate and incubated overnight at 4° C. Detection of the cleavage product was performed using a standard sandwich ELISA assay and quantified using a six point standard curve.
(In general: ELISA stands for enzyme-linked immunosorbent assay.)

“And” between values parts separate entries of the source, which are not always exact repeats. Identical values can stand only once.

In turn, `O=S(=O)(c1ccc(Cl)cn1)N1c2ccc(F)cc2-c2n[nH]cc2C1C1CC1` (stereo not drawn) [5-(5-chloropyridin-2-ylsulfonyl)-4-cyclopropyl-8-fluoro-4,5-dihydro-1H-pyrazolo[4,3-c]quinoline] showed a half-maximal inhibitory concentration (IC50) of 0.1 to 100 nM. For `O=S(=O)(c1ccc(Cl)s1)N1c2cc(F)c(F)cc2-c2n[nH]cc2C1C1CC1` (stereo not drawn) [5-(5-chlorothiophen-2-ylsulfonyl)-4-cyclopropyl-7,8-difluoro-4,5-dihydro-2H-pyrazolo[4,3-c]quinoline] the value was 0.1 to 100 nM; for `CC1c2cn[nH]c2-c2cc(F)c(F)cc2N1S(=O)(=O)c1ccc(Cl)s1` (stereo not drawn) [5-(5-chlorothiophen-2-ylsulfonyl)-7,8-difluoro-4-methyl-4,5-dihydro-1H-pyrazolo[4,3-c]quinoline], 0.1 to 100 nM. Next, `O=c1c2cn[nH]c2c2ccccc2n1S(=O)(=O)c1ccc(Cl)cc1` [5-[(4-chlorophenyl)sulfonyl]-1,5-dihydro-4H-pyrazolo[4,3-c]quinolin-4-one]: 101 to 500 nM; `Cc1n[nH]c2c1CN(S(=O)(=O)c1ccc(Cl)cc1)c1ccccc1-2` [5-[(4-chlorophenyl)sulfonyl]-3-methyl-4,5-dihydro-1H-pyrazolo[4,3-c]quinoline]: 1000 to 10000 nM. Next, `O=S(=O)(c1ccc(Cl)cc1)N1Cc2c[nH]nc2-c2ccccc21` [5-[(4-chlorophenyl)sulfonyl]-4,5-dihydro-1H-pyrazolo[4,3-c]quinoline]: 0.1 to 100 nM; `O=S(=O)(c1ccc(Cl)cc1)N1Cc2c(O)n[nH]c2-c2ccccc21` [5-[(4-chlorophenyl)sulfonyl]-4,5-dihydro-1H-pyrazolo{4,3-c]quinolin-3-ol]: 1000 to 10000 nM; `CC1c2cn[nH]c2-c2ncccc2N1S(=O)(=O)c1ccc(Cl)cc1` (stereo not drawn) [5-[(4-chlorophenyl)sulfonyl]-4-methyl-4,5-dihydro-1H-pyrazolo[4,3-c]-1,5-naphthyridine]: 0.1 to 100 nM.

On to `O=S(=O)(c1ccc(Cl)cc1)N1Cc2c[nH]nc2-c2ccc(F)cc21` [5-[(4-chlorophenyl)sulfonyl]-7-fluoro-4,5-dihydro-2H-pyrazolo[4,3-c]quinoline], for which the IC50 lay within 0.1 to 100 nM.

Regarding `COc1ccc2c(c1)N(S(=O)(=O)c1ccc(Cl)cc1)C(C)c1c[nH]nc1-2` (stereo not drawn) [5-[(4-chlorophenyl)sulfonyl]-7-methoxy-4-methyl-4,5-dihydro-1H-pyrazolo[4,3-c]quinoline], the IC50 is 0.1 to 100 nM.

In turn, `O=S(=O)(c1ccc(Cl)cc1)N1Cc2c[nH]nc2-c2cc(F)ccc21` [5-[(4-chlorophenyl)sulfonyl]-8-fluoro-4,5-dihydro-2H-pyrazolo[4,3-c]quinoline] gave an IC50 of 0.1 to 100 nM.

On to `COc1cccc2c1-c1[nH]ncc1C(C)N2S(=O)(=O)c1ccc(Cl)cc1` (stereo not drawn) [5-[(4-chlorophenyl)sulfonyl]-9-methoxy-4-methyl-4,5-dihydro-1H-pyrazolo[4,3-c]quinoline], for which the IC50 lay within 1000 to 10000 nM. Take `O=S(=O)(c1ccc(Cl)cc1)N1Cc2c[nH]nc2-c2c(F)cccc21` [5-[(4-chlorophenyl}sulfonyl]-9-fluoro-4,5-dihydro-2H-pyrazolo[4,3-c]quinoline]: the IC50 lay in the range of 0.1 to 100 nM.

The compound `O=S(=O)(c1ncc(Cl)s1)N1c2cc(F)c(F)cc2-c2n[nH]cc2C1C1CC1` (stereo not drawn) [5-chloro-2-(4-cyclopropyl-7,8-difluoro-1H-pyrazolo[4,3-c]quinolin-5(4H)-ylsulfonyl)thiazole] registered an IC50 of 0.1 to 100 nM. Next, `O=S(=O)(c1ccc(C(F)(F)F)cc1)N1c2ccccc2-c2[nH]ncc2C12CC2` [5′-(4-(trifluoromethyl)phenylsulfonyl)-1′,5′-dihydrospiro[cyclopropane-1,4′-pyrazolo[4,3-c]quinoline]]: 0.1 to 100 nM; `O=S(=O)(c1ccc(Cl)cc1)N1c2ccccc2-c2n[nH]cc2C12CC2` [5′-(4-chlorophenylsulfonyl)-2′,5′-dihydrospiro[cyclopropane-1,4′-pyrazolo[4,3-c]quinoline]]: 0.1 to 100 nM. For `CCC1N(S(=O)(=O)c2ccc(Cl)cc2)c2ccccc2-c2ccnn21` (stereo not drawn) [6-(4-chlorophenylsulfonyl)-5-ethyl-5,6-dihydropyrazolo[1,5-c]quinazoline] the value was 101 to 500 nM; for `O=S(=O)(c1ccc(C(F)(F)F)cc1)N1c2cc(F)c(F)cc2-c2[nH]ncc2C1c1cccnc1` (stereo not drawn) [7,8-difluoro-4-(pyridin-3-yl)-5-(4-(trifluoromethyl)phenylsulfonyl)-4,5-dihydro-1H-pyrazolo[4,3-c]quinoline], 0.1 to 100 nM; for `CC(C)C1c2c[nH]nc2-c2cc(F)c(F)cc2N1S(=O)(=O)c1ccc(C(F)(F)F)cc1` (stereo not drawn) [7,8-difluoro-4-isopropyl-5-(4-(trifluoromethyl)phenylsulfonyl)-4,5-dihydro-2H-pyrazolo[4,3-c]quinoline], 0.1 to 100 nM. In the case of `CC1c2c[nH]nc2-c2cc(F)c(F)cc2N1S(=O)(=O)c1cccs1` (stereo not drawn) [7,8-difluoro-4-methyl-5-(thiophen-2-ylsulfonyl)-4,5-dihydro-2H-pyrazolo[4,3-c]quinoline], the IC50 was in the range of 0.1 to 100 nM. For `O=S(=O)(c1ccc(C(F)(F)F)cc1)N1Cc2c[nH]nc2-c2cc(F)c(F)cc21` [7,8-difluoro-5-(4-(trifluoromethyl)phenylsulfonyl)-4,5-dihydro-2H-pyrazolo[4,3-c]quinoline] the value was 0.1 to 100 nM; for `CC1c2c[nH]nc2-c2cc(Cl)sc2N1S(=O)(=O)c1ccc(C(F)(F)F)cc1` (stereo not drawn) [7-chloro-4-methyl-5-(4-(trifluoromethyl)phenylsulfonyl)-4,5-dihydro-1H-pyrazolo[3,4-d]thieno[2,3-b]pyridine], 0.1 to 100 nM; for `O=S(=O)(c1ccc(Cl)cc1)N1Cc2c[nH]nc2-c2cc(Cl)ccc21` [8-chloro-5-[(4-chlorophenyl)sulfonyl]-4,5-dihydro-2H-pyrazolo[4,3-c]quinoline], 501 to 1000 nM. For `CC1c2c[nH]nc2-c2cc(F)ccc2N1S(=O)(=O)c1cn(C)cn1` (stereo not drawn) [8-fluoro-4-methyl-5-(1-methyl-1H-imidazol-4-ylsulfonyl)-4,5-dihydro-1H-pyrazolo[4,3-c]quinoline] the value was 1000 to 10000 nM; for `CC1c2c[nH]nc2-c2cc(F)ccc2N1S(=O)(=O)c1cnn(C)c1` (stereo not drawn) [8-fluoro-4-methyl-5-(1-methyl-1H-pyrazol-4-ylsulfonyl)-4,5-dihydro-1H-pyrazolo[4,3-c]quinoline], 101 to 500 nM. For `CC1c2cn[nH]c2-c2cc(F)ccc2N1S(=O)(=O)c1ccc(-c2ccccn2)s1` (stereo not drawn) [8-fluoro-4-methyl-5-(5-(pyridin-2-yl)thiophen-2-ylsulfonyl)-4,5-dihydro-1H-pyrazolo[4,3-c]quinoline] the value was 1000 to 10000 nM; for `CC1c2cn[nH]c2-c2cc(F)ccc2N1S(=O)(=O)c1ccccn1` (stereo not drawn) [8-fluoro-4-methyl-5-(pyridin-2-ylsulfonyl)-4,5-dihydro-1H-pyrazolo[4,3-c]quinoline], 101 to 500 nM and 0.1 to 100 nM. `CC1c2cn[nH]c2-c2cc(F)ccc2N1S(=O)(=O)c1ccc(F)cc1` (stereo not drawn) [8-fluoro-5-(4-fluorophenylsulfonyl)-4-methyl-4,5-dihydro-1H-pyrazolo[4,3-c]quinoline] displayed an IC50 of 0.1 to 100 nM.

In turn, `Nc1ccc(S(=O)(=O)N2c3cc(F)c(F)cc3-c3[nH]ncc3[C@H]2C2CC2)cc1` [(R)-4-(4-cyclopropyl-7,8-difluoro-1H-pyrazolo[4,3-c]quinolin-5(4H)-ylsulfonyl)aniline] registered an IC50 of 0.1 to 100 nM. Next, `O=S(=O)(c1ccc(OC(F)F)cc1)N1c2cc(F)c(F)cc2-c2[nH]ncc2[C@H]1C1CC1` [(R)-4-cyclopropyl-5-(4-(difluoromethoxy)phenylsulfonyl)-7,8-difluoro-4,5-dihydro-1H-pyrazolo[4,3-c]quinoline]: 0.1 to 100 nM.

`O=[N+]([O-])c1ccc(S(=O)(=O)N2c3cc(F)c(F)cc3-c3[nH]ncc3[C@H]2C2CC2)cc1` [(R)-4-cyclopropyl-7,8-difluoro-5-(4-nitrophenylsulfonyl)-4,5-dihydro-1H-pyrazolo[4,3-c]quinoline]: the IC50 was 0.1 to 100 nM. Next, `O=S(=O)(c1ccc(OC(F)(F)F)cc1)N1c2cc(OC(F)(F)F)ccc2-c2n[nH]cc2[C@H]1C1CC1` [(R)-4-cyclopropyl-7-(trifluoromethoxy)-5-(4-(trifluoromethoxy)phenylsulfonyl)-4,5-dihydro-2H-pyrazolo[4,3-c]quinoline]: 0.1 to 100 nM. `O=S(=O)(c1ccc(C(F)(F)F)nc1)N1c2cc(OC(F)(F)F)ccc2-c2n[nH]cc2[C@H]1C1CC1` [(R)-4-cyclopropyl-7-(trifluoromethoxy)-5-(6-(trifluoromethyl)pyridin-3-ylsulfonyl)-4,5-dihydro-2H-pyrazolo[4,3-c]quinoline]: the IC50 was in the range of 0.1 to 100 nM.

As a reminder, the IC50 is the concentration that gives 50% inhibition. A lower IC50 goes with inhibition by little substance.
